From patent publication US20140357666A1, “COMPOUNDS FOR INHIBITING THE INTERACTION OF BCL2 WITH BINDING PARTNERS” (NOVARTIS AG, priority 2011, published 2014) come the findings set out here.

pIC50: −log10 of the molar value.

Assay [1] addresses BCL-2 binding to biotinylated BAK peptide (Homo sapiens, UniProt P10415). The assay is described as follows: SPR (Biacore) solution inhibition assay, BCL-2 binding to BAK peptide surface. Conditions: read-out: BCL2_SPR IC50 BAK. An excerpt:
(§1) The present method includes utility of a Surface plasmon resonance (SPR)-based biosensor (Biacore™, GE Healthcare, Uppsala, Sweden) to characterize BCL-2 inhibitors.
(§2) Biacore™ utilizes the phenomenon of surface plasmon resonance (SPR) to detect and measure binding interactions. In a typical Biacore experiment, one of the interacting molecules (ligand) is immobilized on a flexible dextran matrix while the interacting partner (analyte) is allowed to flow across that surface. A binding interaction results in an increase in mass on the sensor surface and a corresponding direct change in the refractive index of the medium in the vicinity of the sensor surface. Changes in refractive index or signal are recorded in resonance units (R.U.) Signal changes due to association and dissociation of complexes are monitored in a non-invasive manner, continuously and in real-time, the results of which are reported in the form of a sensorgram.
(§3) The SPR assay is configured to examine solution inhibition of BCL-2 binding to peptide derivatized sensor surfaces to generate IC50 values as a measure of inhibitor potency.
(§4) Biacore™ A100 (GE Healthcare, Uppsala, Sweden) was used to conduct all experiments reported herein. Sensor surface preparation and all interaction analyses experiments were performed at 25° C. Reagents were purchased from GE Healthcare. Running buffer containing 10 mM Hepes, pH7.4, 150 mM sodium chloride, 1.25 mM Dithiothreitol, 3% Dimethyl sulfoxide and 0.05% polysorbate 20 were utilized throughout all analyses.
(§5) Biotinylated BAK, BAD and NOXA peptides were diluted to 10 nM in running buffer and captured onto a sensor surface pre-derivatized with streptavidin (sensor chip SA) to peptide surface densities in the range 50-100 R.U. Peptide captured surfaces were blocked with 500 μM PEO2-Biotin.
(§6) Interaction analyses were performed by first equilibrating each sample within a 6 point three fold compound dilution series in the range 16 μM to […] with 56 nM BCL-2 for one hour during instrument start-up procedures. Protein compound mixtures were then injected over each peptide surface in parallel for 60 seconds at a flow-rate of 30 μL/min. 56 nM BCL-2 control samples were also prepared and run at regular intervals during the assay. Surface regeneration was performed at the end of each analysis cycle by two 30 second injections of 10 mM Glycine, pH 2.5, 1M Sodium Chloride, 0.05% polysorbate 20. Samples and control compound samples were run in duplicate and controls are also run at regular intervals during the assay to monitor surface and assay performance.
(§7) Data analyses are carried out using Biacore™ A100 evaluation software v1.1 to validate assay quality. Binding level report points were used relative to BCL-2 control samples to calculate % inhibition values for each compound protein mixture. […] The range of data shown in table 1 represents the high and low IC50 values obtained from multiple experiments.

The target of assay [2] is BCL-2 binding to biotinylated BAD peptide (Homo sapiens, UniProt P10415). The assay is described as follows: SPR (Biacore) solution inhibition assay, BCL-2 binding to BAD peptide surface. The following applies: read-out: BCL2_SPR IC50 BAD.
Description: as §1, §2, §3, §4, §5, §6, §7

BCL-2 binding to biotinylated BAD peptide, sequence (P10415 whole entry): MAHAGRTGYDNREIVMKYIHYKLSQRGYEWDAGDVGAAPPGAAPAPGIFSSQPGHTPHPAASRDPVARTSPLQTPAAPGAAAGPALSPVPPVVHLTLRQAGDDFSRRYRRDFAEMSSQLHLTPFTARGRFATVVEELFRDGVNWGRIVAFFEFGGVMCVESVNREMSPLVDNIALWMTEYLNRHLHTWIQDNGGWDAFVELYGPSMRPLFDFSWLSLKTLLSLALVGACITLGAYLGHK
BCL-2 binding to biotinylated BAK peptide, sequence (P10415 whole entry): as above

Consider `CCCCN(CCCC)C(=O)c1cc(C)n(-c2ccc(NC(=O)Nc3ccc(OC)c(OC)c3)cc2C(=O)N2Cc3ccccc3C[C@H]2CO)n1` [Example 38], for which the pIC50 is 6.38 to 6.42 in assay [1] and 6.21 to 6.28 in assay [2].

As to `CCCCN(CCCC)C(=O)c1cc(C)n(-c2ccc(NC(=O)Nc3ccccc3Cc3ccccc3)cc2C(=O)N2Cc3ccccc3C[C@H]2CO)n1` [Example 39], the pIC50 was 6.17 to 6.18 in assay [1] and 6.07 to 6.12 in assay [2].

For `CCCCN(CCCC)C(=O)c1cc(C)n(-c2ccc(NC(=O)Nc3c(Cl)cccc3Cl)cc2C(=O)N2Cc3ccccc3C[C@H]2CO)n1` [Example 40], the pIC50 is 6.65 to 6.71 in assay [1] and 6.52 to 6.69 in assay [2].

With `CCCCN(CCCC)C(=O)c1cc(C)n(-c2ccc(NC(=O)Nc3ccccc3OC(F)(F)F)cc2C(=O)N2Cc3ccccc3C[C@H]2CO)n1` [Example 41], the results for the pIC50 in assay [1] and in assay [2] were 6.01 to 6.05 and 6.01 to 6.03, respectively.
